Assay results reported in patent publication US8802866B2, “Pyridinylimidazolone derivatives for the inhibition of PI3 kinases” (Merck Patent GmbH, priority 2009, dated 2014).
pIC50, pKd: −log10 of the molar value.

Legend:
[1] = molecular target: CK2 protein kinase; settings: cited from earlier work
[2] = molecular target: PI3Kalpha (Homo sapiens, UniProt P42336); test: Biochemical PI3Kalpha assay (neomycin SPA, lipid phosphorylation); settings: human recombinant GST-PI3K
How it was run: (§1)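 Recombinant PI3K incubated with lipid substrate and radioactive ATP for 120 min at room temperature with gentle stirring, then stopped with neomycin-coated PVT-SPA beads, ATP 60 mM and EDTA 6.2 mM in PBS. After 60 min bead binding and centrifugation, radioactive Ptdlns(3)P counted by scintillation.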

[3] = molecular target: PI3Kbeta (Homo sapiens, UniProt P42338); test: Biochemical PI3Kbeta assay (neomycin SPA, lipid phosphorylation); settings: human recombinant GST-PI3K
PI3Kbeta, sequence (P42338 whole entry): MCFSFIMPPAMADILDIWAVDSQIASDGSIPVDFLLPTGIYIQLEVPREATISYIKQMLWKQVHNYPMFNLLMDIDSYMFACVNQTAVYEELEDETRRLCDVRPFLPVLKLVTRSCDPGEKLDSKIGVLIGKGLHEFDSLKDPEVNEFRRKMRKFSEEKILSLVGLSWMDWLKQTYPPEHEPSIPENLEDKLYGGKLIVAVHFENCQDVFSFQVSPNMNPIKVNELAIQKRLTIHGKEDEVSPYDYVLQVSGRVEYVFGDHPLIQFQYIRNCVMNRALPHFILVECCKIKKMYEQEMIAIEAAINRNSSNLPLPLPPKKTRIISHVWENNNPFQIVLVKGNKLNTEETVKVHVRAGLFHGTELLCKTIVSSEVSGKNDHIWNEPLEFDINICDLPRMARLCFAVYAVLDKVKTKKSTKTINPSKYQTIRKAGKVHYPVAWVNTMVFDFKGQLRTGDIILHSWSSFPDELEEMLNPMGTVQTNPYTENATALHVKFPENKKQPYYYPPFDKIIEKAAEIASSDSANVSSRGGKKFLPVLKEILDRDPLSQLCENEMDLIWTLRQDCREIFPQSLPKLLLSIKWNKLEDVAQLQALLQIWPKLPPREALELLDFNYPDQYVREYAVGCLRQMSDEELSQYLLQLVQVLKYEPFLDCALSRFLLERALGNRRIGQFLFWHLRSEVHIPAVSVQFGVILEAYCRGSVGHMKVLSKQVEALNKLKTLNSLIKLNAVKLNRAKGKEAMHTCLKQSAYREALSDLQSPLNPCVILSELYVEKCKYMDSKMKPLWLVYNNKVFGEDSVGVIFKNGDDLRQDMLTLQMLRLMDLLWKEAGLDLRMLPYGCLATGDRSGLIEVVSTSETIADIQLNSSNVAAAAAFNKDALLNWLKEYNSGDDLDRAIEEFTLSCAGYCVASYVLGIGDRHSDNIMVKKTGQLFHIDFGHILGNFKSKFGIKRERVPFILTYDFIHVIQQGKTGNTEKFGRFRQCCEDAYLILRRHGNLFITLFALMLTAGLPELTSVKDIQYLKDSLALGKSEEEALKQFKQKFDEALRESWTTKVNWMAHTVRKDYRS
PI3Kbeta, sequence (P27986 whole entry partner): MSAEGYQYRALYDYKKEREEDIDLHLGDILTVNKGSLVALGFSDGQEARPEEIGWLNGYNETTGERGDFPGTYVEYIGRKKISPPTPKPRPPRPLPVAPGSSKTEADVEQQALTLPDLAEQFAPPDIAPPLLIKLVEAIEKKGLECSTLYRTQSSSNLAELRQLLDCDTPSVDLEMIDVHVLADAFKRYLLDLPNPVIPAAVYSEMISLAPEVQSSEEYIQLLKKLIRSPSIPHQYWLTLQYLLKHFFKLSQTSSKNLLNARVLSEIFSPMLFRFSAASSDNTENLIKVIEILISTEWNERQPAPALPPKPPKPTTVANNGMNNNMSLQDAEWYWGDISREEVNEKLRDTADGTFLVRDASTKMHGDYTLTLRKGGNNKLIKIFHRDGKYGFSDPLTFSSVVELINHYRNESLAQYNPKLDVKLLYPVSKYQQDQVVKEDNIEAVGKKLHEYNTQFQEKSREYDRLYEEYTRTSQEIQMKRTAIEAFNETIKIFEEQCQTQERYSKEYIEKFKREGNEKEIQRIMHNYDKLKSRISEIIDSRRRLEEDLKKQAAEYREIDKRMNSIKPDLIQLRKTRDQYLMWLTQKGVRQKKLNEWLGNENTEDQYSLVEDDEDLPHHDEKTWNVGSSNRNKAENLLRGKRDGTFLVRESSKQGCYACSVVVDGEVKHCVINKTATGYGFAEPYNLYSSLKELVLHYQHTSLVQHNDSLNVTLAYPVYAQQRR
How it was run: as §1

[4] = molecular target: recombinant PI3Kalpha (shortened form of the catalytic subunit) (Homo sapiens, UniProt P42336); test: BIACORE PI3K binding assay (SPR); settings: 25° C.
recombinant PI3Kalpha (shortened form of the catalytic subunit), sequence (P42336 151-1068 limits assumed): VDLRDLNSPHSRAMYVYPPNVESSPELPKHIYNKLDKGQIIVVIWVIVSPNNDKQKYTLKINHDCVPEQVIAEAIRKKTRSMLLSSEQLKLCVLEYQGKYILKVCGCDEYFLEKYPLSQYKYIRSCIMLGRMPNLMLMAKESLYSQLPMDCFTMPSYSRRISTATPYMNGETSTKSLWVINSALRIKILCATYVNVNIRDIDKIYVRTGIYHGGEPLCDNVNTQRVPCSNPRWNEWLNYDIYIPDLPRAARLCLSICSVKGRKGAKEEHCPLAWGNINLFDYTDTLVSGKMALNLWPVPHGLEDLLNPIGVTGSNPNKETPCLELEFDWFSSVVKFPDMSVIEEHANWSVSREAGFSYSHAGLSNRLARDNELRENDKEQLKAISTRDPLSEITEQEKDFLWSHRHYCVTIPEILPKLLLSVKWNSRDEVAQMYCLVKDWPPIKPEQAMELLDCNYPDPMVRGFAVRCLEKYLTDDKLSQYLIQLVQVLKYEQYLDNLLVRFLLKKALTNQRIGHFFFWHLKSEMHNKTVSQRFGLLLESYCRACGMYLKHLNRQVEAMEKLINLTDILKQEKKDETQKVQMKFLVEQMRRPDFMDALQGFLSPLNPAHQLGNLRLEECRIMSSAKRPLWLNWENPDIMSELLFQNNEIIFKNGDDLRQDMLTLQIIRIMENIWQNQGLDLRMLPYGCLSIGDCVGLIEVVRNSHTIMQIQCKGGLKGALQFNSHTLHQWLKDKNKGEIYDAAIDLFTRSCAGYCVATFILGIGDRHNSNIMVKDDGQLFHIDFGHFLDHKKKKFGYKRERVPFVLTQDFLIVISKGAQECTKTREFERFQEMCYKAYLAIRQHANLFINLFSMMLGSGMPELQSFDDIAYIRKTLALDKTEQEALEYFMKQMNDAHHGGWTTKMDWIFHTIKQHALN
How it was run: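 Contact time was 180 s and dissociation 240 s, in HEPES pH 7.40 buffer with 2% DMSO. Solvent-corrected, double-referenced data were fitted to a 1:1 model with mass transport.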

[5] = tested on: PI3K-dependent phosphorylation of PKB at Serin 473 in PC3 cells; test: Cellular PI3K assay (P-S473-PKB Luminex assay in PC3 cells); format: cell-based; settings: Homo sapiens, PC-3, 0.5 h; PC3 cells, 30 min, serum-free, P-S473-PKB; read-out: IC50 (cell)
How it was run: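 PC3 cells were exposed for 30 min under serum-free conditions to 7 concentrations of compound, then lysed. Lysates were captured overnight at 4°C on anti-total-PKB Luminex beads and detected with P-S473-PKB antibody plus PE-labelled secondary.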

[6] = molecular target: DNA-PK protein complex (Homo sapiens, UniProt P78527); test: Biochemical DNA-PK assay (FlashPlate)
How it was run: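 Streptavidin-coated FlashPlate radiometric kinase assay, stopped with 200 mM EDTA, then wells washed with 0.9% NaCl and bound radioactivity counted. Blank (non-specific reaction) defined with a proprietary kinase inhibitor at 10 μM.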

[7] = molecular target: T1, mTOR (Homo sapiens, UniProt P42345); test: Biochemical mTOR assay (Millipore mTOR assay kit)
T1 construct: purchased Millipore 14-770
T1 sequence (P42345 1362-2549 limits assumed): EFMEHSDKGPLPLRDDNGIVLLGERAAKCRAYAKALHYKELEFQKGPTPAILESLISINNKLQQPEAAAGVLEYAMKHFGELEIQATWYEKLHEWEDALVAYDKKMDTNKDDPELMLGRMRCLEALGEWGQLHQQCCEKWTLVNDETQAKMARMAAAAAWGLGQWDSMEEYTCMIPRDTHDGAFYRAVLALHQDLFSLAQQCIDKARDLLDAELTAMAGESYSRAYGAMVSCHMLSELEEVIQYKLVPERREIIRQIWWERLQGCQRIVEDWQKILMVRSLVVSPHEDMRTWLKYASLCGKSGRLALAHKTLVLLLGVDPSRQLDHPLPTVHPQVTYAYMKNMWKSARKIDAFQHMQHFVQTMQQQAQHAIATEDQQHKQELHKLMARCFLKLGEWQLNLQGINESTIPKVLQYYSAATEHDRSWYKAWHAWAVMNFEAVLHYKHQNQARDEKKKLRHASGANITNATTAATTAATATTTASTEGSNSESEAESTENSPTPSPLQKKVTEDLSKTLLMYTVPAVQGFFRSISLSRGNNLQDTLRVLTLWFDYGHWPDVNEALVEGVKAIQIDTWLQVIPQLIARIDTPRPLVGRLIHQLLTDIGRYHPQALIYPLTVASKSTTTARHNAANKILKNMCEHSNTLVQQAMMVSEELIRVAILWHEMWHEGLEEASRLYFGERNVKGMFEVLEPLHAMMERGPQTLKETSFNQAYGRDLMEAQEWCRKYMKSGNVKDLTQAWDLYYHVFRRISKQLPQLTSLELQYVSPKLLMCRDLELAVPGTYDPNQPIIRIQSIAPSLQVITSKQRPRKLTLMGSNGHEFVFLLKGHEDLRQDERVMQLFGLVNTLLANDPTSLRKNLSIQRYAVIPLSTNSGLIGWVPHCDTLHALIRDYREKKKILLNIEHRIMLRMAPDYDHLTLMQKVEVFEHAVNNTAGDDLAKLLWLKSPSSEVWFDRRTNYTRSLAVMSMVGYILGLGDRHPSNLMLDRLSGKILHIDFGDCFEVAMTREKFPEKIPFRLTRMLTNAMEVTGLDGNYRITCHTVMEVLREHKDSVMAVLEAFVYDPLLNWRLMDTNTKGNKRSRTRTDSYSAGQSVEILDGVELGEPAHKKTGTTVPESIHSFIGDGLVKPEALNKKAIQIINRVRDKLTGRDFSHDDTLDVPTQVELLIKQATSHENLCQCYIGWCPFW
Description: The biochemical mTOR assay was carried out by the method described in the Millipore mTOR assay kit (catalogue number 14-770).

PI3Kalpha, sequence (P42336 whole entry): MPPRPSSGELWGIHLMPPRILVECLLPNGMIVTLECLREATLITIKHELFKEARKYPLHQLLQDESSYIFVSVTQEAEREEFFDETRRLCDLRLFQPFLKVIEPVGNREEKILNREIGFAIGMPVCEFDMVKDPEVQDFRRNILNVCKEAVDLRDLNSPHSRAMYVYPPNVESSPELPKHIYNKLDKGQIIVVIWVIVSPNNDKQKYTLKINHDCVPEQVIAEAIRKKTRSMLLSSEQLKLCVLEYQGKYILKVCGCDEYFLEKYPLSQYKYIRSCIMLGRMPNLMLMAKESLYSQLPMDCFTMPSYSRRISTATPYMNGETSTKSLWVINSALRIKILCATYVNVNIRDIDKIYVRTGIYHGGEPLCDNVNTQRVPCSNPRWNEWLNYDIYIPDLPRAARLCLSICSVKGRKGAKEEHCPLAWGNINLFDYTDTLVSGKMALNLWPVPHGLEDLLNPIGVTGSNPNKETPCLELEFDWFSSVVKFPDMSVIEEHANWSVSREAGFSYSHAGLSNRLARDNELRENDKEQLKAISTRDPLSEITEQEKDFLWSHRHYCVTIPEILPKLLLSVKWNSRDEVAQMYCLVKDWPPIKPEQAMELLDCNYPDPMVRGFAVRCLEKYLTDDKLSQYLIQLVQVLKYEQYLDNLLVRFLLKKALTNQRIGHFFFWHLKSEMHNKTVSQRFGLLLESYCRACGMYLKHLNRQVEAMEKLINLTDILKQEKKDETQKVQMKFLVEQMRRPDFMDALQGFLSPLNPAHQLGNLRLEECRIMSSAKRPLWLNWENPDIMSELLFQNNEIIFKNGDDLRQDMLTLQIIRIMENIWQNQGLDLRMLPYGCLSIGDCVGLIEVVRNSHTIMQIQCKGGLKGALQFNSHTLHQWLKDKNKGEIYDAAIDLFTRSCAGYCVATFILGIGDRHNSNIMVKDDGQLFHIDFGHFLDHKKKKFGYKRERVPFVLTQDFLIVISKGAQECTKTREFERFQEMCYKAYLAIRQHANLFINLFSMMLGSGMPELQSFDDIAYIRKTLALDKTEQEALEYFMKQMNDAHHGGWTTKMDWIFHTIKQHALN
PI3Kalpha, sequence (P27986 whole entry partner): as the sequence (P27986 whole entry partner) above

Structure (SMILES) | pIC50 [1] | pIC50 [2] | pIC50 [3] | pKd [4] | pIC50 [5] | pIC50 [6] | pIC50 [7] | melting point
O=c1cc(N2CCOCC2)oc2c(-c3ccccc3)cccc12 [LY294002] | 5.00 to 5.30 |  |  |  |  |  |  | 
COc1ccc(-c2ccnc(-c3cn(C)c(=O)n3-c3ccc(C(C)(C)C#N)cc3)c2)cn1 [Example A9, 2-{4-[5-(6-Methoxy-[3,4′]bipyridinyl-2′-yl)-3-methyl-2-oxo-2,3-dihydroimidazol-1-yl]phenyl}-2-methylpropionitrile] |  | 5.00 to 7.00 | 5.00 to 7.00 | 5.00 to 7.00 | 5.00 to 7.00 | 7.00 to 10.00 | 5.00 to 7.00 | 187 °C
CCOC(=O)C(C)(C)c1ccc(-n2c(-c3cc(-c4cnc5ccccc5c4)ccn3)cn(C)c2=O)cc1 [Example A36, Ethyl 2-methyl-2-{4-[3-methyl-2-oxo-5-(4-quinolin-3-ylpyridin-2-yl)-2,3-dihydro-imidazol-1-yl]phenyl}propionate] |  | 5.00 to 7.00 | < 5.00 | 5.00 to 7.00 | < 5.00 | 7.00 to 10.00 | 5.00 to 7.00 | 158 °C
Cn1cc(-c2cc(-c3ccsc3)ccn2)n(-c2ccc(C(C)(C)C#N)cc2)c1=O [Example A26, 2-Methyl-2-{4-[3-methyl-2-oxo-5-(4-thiophen-3-ylpyridin-2-yl)-2,3-dihydro-imidazol-1-yl]phenyl}propionitrile] |  | 5.00 to 7.00 | < 5.00 | 5.00 to 7.00 | < 5.00 | 7.00 to 10.00 | 5.00 to 7.00 | 209 °C
N#CCc1ccc(-n2c(-c3cc(-c4cnc5[nH]ccc5c4)ccn3)c[nH]c2=O)cc1 [Example A31, (4-{2-oxo-5-[4-(1H-pyrrolo[2,3-b]pyridin-5-yl)pyridin-2-yl]-2,3-dihydroimidazol-1-yl}phenyl)acetonitrile] |  | 5.00 to 7.00 | 5.00 to 7.00 | 7.00 to 10.00 | 5.00 to 7.00 | 7.00 to 10.00 | 5.00 to 7.00 | > 410 °C (dec.)
CN1CCN(c2ccc(-n3c(-c4cc(-c5cnc6[nH]ccc6c5)ccn4)cn(C)c3=O)cc2C(F)(F)F)CC1 [Example A49, 1-Methyl-3-[4-(4-methylpiperazin-1-yl)-3-trifluoromethylphenyl]-4-[4-(1H-pyrrolo[2,3-b]pyridin-5-yl)pyridin-2-yl]-1,3-dihydroimidazol-2-one] |  | 5.00 to 7.00 | 5.00 to 7.00 | 7.00 to 10.00 | 5.00 to 7.00 | 7.00 to 10.00 | 5.00 to 7.00 | 241 °C
Cn1cc(-c2cc(-c3cnc4[nH]ncc4c3)ccn2)n(-c2ccc(C(C)(C)C#N)cc2)c1=O [Example A41, 2-Methyl-2-(4-{3-methyl-2-oxo-5-[4-(1H-pyrazolo[3,4-b]pyridin-5-yl)pyridin-2-yl]-2,3-dihydroimidazol-1-yl}phenyl)propionitrile] |  | 7.00 to 10.00 | 5.00 to 7.00 | 7.00 to 10.00 | 5.00 to 7.00 | 7.00 to 10.00 | 5.00 to 7.00 | 294 °C
Cn1cc(-c2cc(-c3cnc4ccccc4c3)ccn2)n(-c2ccc(C(C)(C)C(N)=O)cc2)c1=O [Example A21, 2-{-4-[3-Methyl-2-oxo-5-(4-quinolin-3-ylpyridin-2-yl)-2,3-dihydroimidazol-1-yl]-phenyl}isobutyramide] |  | 5.00 to 7.00 | 5.00 to 7.00 | 7.00 to 10.00 | < 5.00 | 7.00 to 10.00 | 5.00 to 7.00 | 259 °C
Cn1cc(-c2cc(-c3ccc4[nH]ncc4c3)ccn2)n(-c2ccc(C(C)(C)C#N)cc2)c1=O [Example A52, 2-(4-{5-[4-(1H-Indazol-5-yl)pyridin-2-yl]-3-methyl-2-oxo-2,3-dihydroimidazol-1-yl}phenyl)-2-methylpropionitrile] |  | 5.00 to 7.00 | 5.00 to 7.00 | 7.00 to 10.00 | 5.00 to 7.00 | 7.00 to 10.00 | 5.00 to 7.00 | 165 °C
Cn1cc(-c2cc(-c3cnc4c(c3)CCN4)ccn2)n(-c2ccc(C(C)(C)C#N)cc2)c1=O [Example A43, 2-(4-{5-[4-(2,3-Dihydro-1H-pyrrolo[2,3-b]pyridin-5-yl)pyridin-2-yl]-3-methyl-2-oxo-2,3-dihydroimidazol-1-yl}phenyl)-2-methylpropionitrile] |  | 7.00 to 10.00 | 5.00 to 7.00 | 7.00 to 10.00 | 5.00 to 7.00 | 7.00 to 10.00 | 5.00 to 7.00 | 247 °C
Cn1cc(-c2cc(-c3cnc4[nH]ccc4c3)ccn2)n(-c2ccc(C(C)(C)C#N)cc2)c1=O [Example A12, 2-Methyl-2-(4-{3-methyl-2-oxo-5-[4-(1H-pyrrolo[2,3-b]pyridin-5-yl)pyridin-2-yl]-2,3-dihydroimidazol-1-yl}phenyl)propionitrile] |  | 7.00 to 10.00 | 5.00 to 7.00 | 7.00 to 10.00 | 7.00 to 10.00 | 7.00 to 10.00 | 5.00 to 7.00 | 248 °C
